# Measured values as given in patent US20120142705A1, “ISATIN AND OXINDOLE COMPOUNDS” (priority 2010, published 2012).
# Biological target: T1, Recombinant human liver GK1 (GST-GK) (Homo sapiens, UniProt P35557)
# T1 construct: made in house; host or cells: E. coli
# T1 sequence (P35557 1-466 isoform P35557-2): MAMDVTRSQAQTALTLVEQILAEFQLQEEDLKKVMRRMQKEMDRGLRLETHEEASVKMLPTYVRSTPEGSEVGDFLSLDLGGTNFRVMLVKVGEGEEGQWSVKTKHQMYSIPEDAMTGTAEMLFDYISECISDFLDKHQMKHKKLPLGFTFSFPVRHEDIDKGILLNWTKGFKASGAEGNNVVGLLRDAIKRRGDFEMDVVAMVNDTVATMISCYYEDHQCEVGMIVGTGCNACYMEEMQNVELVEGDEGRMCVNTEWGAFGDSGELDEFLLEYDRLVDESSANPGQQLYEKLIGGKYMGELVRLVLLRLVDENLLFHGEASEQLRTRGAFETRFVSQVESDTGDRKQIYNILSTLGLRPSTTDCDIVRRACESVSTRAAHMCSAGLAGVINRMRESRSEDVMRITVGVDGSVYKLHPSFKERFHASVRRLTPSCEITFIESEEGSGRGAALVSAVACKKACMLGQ
# Assay: In vitro glucokinase activity, G6PDH-coupled spectrophotometric assay
# Assay type: biochemical
# Conditions: 5 mM D-glucose, 30° C., pH 7.1
# Experimental: Glucokinase In Vitro Assay Protocol: Glucokinase (GK) was assayed by coupling the production of glucose-6-phosphate to the generation of NADH with glucose-6-phosphate dehydrogenase (G6PDH, 0.75-1 kunits/mg; Boehringer Mannheim, Indianapolis, Ind.) from Leuconostoc mesenteroides as the coupling enzyme (Scheme 2).
# Recombinant human liver GK1 was expressed in E. coli as a glutathione S-transferase fusion protein (GST-GK) [Liang et al, 1995] and was purified by chromatography over a glutathione-Sepharose 4B affinity column using the procedure provided by the manufacturer (Amersham Pharmacia Biotech, Piscataway, N.J.).
# The assay was conducted at 30° C. in a flat bottom 96-well tissue culture plate from Costar (Cambridge, Mass.) with a final incubation volume of 120 μL. The incubation reaction contained the following: 25 mM Hepes buffer (pH 7.1), 25 mM KCl, 5 mM D-glucose, 1 mM ATP, 1.8 mM NAD, 2 mM MgCl2, 1 μM sorbitol-6-phosphate, 1 mM dithiothreitol, test drug or 10% dimethylsulfoxide, ˜7 units/ml G6PDH, and GK (see below). All organic reagents were >98% pure and were from Boehringer Mannheim with the exceptions of D-glucose and Hepes which were from Sigma Chemical Co, St Louis, Mo. Test compounds were dissolved in dimethylsulfoxide and were added to the incubation reaction minus GST-GK in a volume of 12 μL to yield a final dimethylsulfoxide concentration of 10%. This mix was pre-incubated in the temperature controlled chamber of a SPECTRAmax 250 microplate spectrophotometer (Molecular Devices Corporation, Sunnyvale, Calif.) for 10 minutes to allow temperature equilibrium and then the reaction was started by the addition of 20 μL GST-GK.
# After addition of enzyme, the increase in optical density (OD) at 340 nm was monitored spectrophotometrically to determine the rate of change (OD340 per min). The GK activity (OD340/min) in control wells (10% dimethylsulfoxide minus GK activators) was compared with the activity in wells containing test GK activators, and the concentration of activator that produced a 50% increase in the activity of GK, i.e., the SC1.5, was calculated.
row,Compound,SC1.5 (concentration of activator that produced a 50% increase in the activity of GK) [µM]
1,"CC(C)CC(C(=O)Nc1cnccn1)N1C(=O)Cc2ccc(Cl)cc21 (stereo not drawn) [Example 113, 2-(6-Chloro-2-oxo-2,3-dihydro-indol-1-yl)-4-methyl-pentanoic acid pyrazin-2-ylamide]",2.64
2,"Cc1ccc2c(c1)N(C(CC1CCCC1)C(=O)Nc1ccccn1)C(=O)C2 (stereo not drawn) [Example 132, 3-Cyclopentyl-2-(6-methyl-2-oxo-2,3-dihydro-indol-1-yl)-N-pyridin-2-yl-propionamide]",0.23
3,"CC(C)CC(C(=O)Nc1ccccn1)N1C(=O)Cc2c(Cl)cccc21 (stereo not drawn) [Example 26, 2-(4-Chloro-2-oxo-2,3-dihydro-indol-1-yl)-4-methyl-pentanoic acid pyridin-2-ylamide]",6.77
4,"O=C1C(=O)N(C(CC2CCCC2)C(=O)Nc2nccs2)c2cc(Cl)ccc21 (stereo not drawn) [Example 117, 2-(6-Chloro-2,3-dioxo-2,3-dihydro-indol-1-yl)-3-cyclopentyl-N-thiazol-2-yl-propionamide]",0.6
5,"Cn1ccc(NC(=O)C(CC2CCCC2)N2C(=O)C(=O)c3cc(OC(F)(F)F)ccc32)n1 (stereo not drawn) [Example 31, 3-Cyclopentyl-2-(2,3-dioxo-5-trifluoromethoxy-2,3-dihydro-indol-1-yl)-N-(1-methyl-1H-pyrazol-3-yl)-propionamide]",1.65
6,"Cn1ccc(NC(=O)C(CC2CCCC2)N2C(=O)C(=O)c3c(Cl)cccc32)n1 (stereo not drawn) [Example 15, 2-(4-Chloro-2,3-dioxo-2,3-dihydro-indol-1-yl)-3-cyclopentyl-N-(1-methyl-1H-pyrazol-3-yl)-propionamide]",6.5
7,"O=C1C(=O)N(C(CC2CCCC2)C(=O)Nc2nccs2)c2cccc(Cl)c21 (stereo not drawn) [Example 16, 2-(4-Chloro-2,3-dioxo-2,3-dihydro-indol-1-yl)-3-cyclopentyl-N-thiazol-2-yl-propionamide]",3.91
8,"Cc1ccc2c(c1)C(=O)C(=O)N2C(CC1CCCC1)C(=O)Nc1cnccn1 (stereo not drawn) [Example 76, 3-Cyclopentyl-2-(5-methyl-2,3-dioxo-2,3-dihydro-indol-1-yl)-N-pyrazin-2-yl-propionamide]",22.77
9,"COc1ccc2c(c1)C(=O)C(=O)N2C(CC1CCCC1)C(=O)Nc1ccccn1 (stereo not drawn) [Example 46, 3-Cyclopentyl-2-(5-methoxy-2,3-dioxo-2,3-dihydro-indol-1-yl)-N-pyridin-2-yl-propionamide]",2.32
10,"O=C1C(=O)N(C(CC2CCCC2)C(=O)Nc2cnccn2)c2cc(Cl)ccc21 (stereo not drawn) [Example 120, 2-(6-Chloro-2,3-dioxo-2,3-dihydro-indol-1-yl)-3-cyclopentyl-N-pyrazin-2-yl-propionamide]",0.9
11,"O=C1C(=O)N(C(CC2CCCC2)C(=O)Nc2cnccn2)c2ccc(Cl)cc21 (stereo not drawn) [Example 96, 2-(5-Chloro-2,3-dioxo-2,3-dihydro-indol-1-yl)-3-cyclopentyl-N-pyrazin-2-yl-propionamide]",4.04
12,"Cc1ccc2c(c1)CC(=O)N2C(CC1CCCC1)C(=O)Nc1cnccn1 (stereo not drawn) [Example 83, 3-Cyclopentyl-2-(5-methyl-2-oxo-2,3-dihydro-indol-1-yl)-N-pyrazin-2-yl-propionamide]",4.47
13,"O=C(Nc1cnccn1)C(CC1CCCC1)N1C(=O)Cc2cc(Br)ccc21 (stereo not drawn) [Example 67, 2-(5-Bromo-2-oxo-2,3-dihydro-indol-1-yl)-3-cyclopentyl-N-pyrazin-2-yl-propionamide]",1.28
14,"O=C1C(=O)N(C(CC2CCCC2)C(=O)Nc2ccccn2)c2ccc(OC(F)(F)F)cc21 (stereo not drawn) [Example 30, 3-Cyclopentyl-2-(2,3-dioxo-5-trifluoromethoxy-2,3-dihydro-indol-1-yl)-N-pyridin-2-yl-propionamide]",0.33
15,"O=C1C(=O)N(C(CC2CCCC2)C(=O)Nc2ccccn2)c2ccccc21 (stereo not drawn) [Example 6, 3-Cyclopentyl-2-(2,3-dioxo-2,3-dihydro-indol-1-yl)-N-pyridin-2-yl-propionamide]",5.19
16,"COc1ccc2c(c1)CC(=O)N2C(CC1CCCC1)C(=O)Nc1nccs1 (stereo not drawn) [Example 51, 3-Cyclopentyl-2-(5-methoxy-2-oxo-2,3-dihydro-indol-1-yl)-N-thiazol-2-yl-propionamide]",3.6
17,"O=C(Nc1cnccn1)C(CC1CCCC1)N1C(=O)Cc2cc(Cl)ccc21 (stereo not drawn) [Example 97, 2-(5-Chloro-2-oxo-2,3-dihydro-indol-1-yl)-3-cyclopentyl-N-pyrazin-2-yl-propionamide]",1.84
18,"O=C1C(=O)N(C(CC2CCCC2)C(=O)Nc2cnccn2)c2ccc(OC(F)(F)F)cc21 (stereo not drawn) [Example 29, 3-Cyclopentyl-2-(2,3-dioxo-5-trifluoromethoxy-2,3-dihydro-indol-1-yl)-N-pyrazin-2-yl-propionamide]",1.5
19,"CC(C)CC(C(=O)Nc1ccccn1)N1C(=O)C(=O)c2cc(OC(F)(F)F)ccc21 (stereo not drawn) [Example 38, 2-(2,3-Dioxo-5-trifluoromethoxy-2,3-dihydro-indol-1-yl)-4-methyl-pentanoic acid pyridin-2-ylamide]",2.57
20,"O=C(Nc1ccccn1)C(CC1CCCC1)N1C(=O)Cc2ccc(Br)cc21 (stereo not drawn) [Example 135, 2-(6-Bromo-2-oxo-2,3-dihydro-indol-1-yl)-3-cyclopentyl-N-pyridin-2-yl-propionamide]",0.12
21,"CC(C)CC(C(=O)Nc1nccs1)N1C(=O)Cc2cc(OC(F)(F)F)ccc21 (stereo not drawn) [Example 41, 4-Methyl-2-(2-oxo-5-trifluoromethoxy-2,3-dihydro-indol-1-yl)-pentanoic acid thiazol-2-ylamide]",2.81
22,"Cc1ccc2c(c1)N(C(CC1CCCC1)C(=O)Nc1ccn(C)n1)C(=O)C2 (stereo not drawn) [Example 131, 3-Cyclopentyl-2-(6-methyl-2-oxo-2,3-dihydro-indol-1-yl)-N-(1-methyl-1H-pyrazol-3-yl)-propionamide]",2.28
23,"O=C1C(=O)N(C(CC2CCCC2)C(=O)Nc2ccccn2)c2cccc(Cl)c21 (stereo not drawn) [Example 14, 2-(4-Chloro-2,3-dioxo-2,3-dihydro-indol-1-yl)-3-cyclopentyl-N-pyridin-2-yl-propionamide]",1.9
24,"O=C(Nc1cnccn1)C(CC1CCCC1)N1C(=O)Cc2ccc(Cl)cc21 (stereo not drawn) [Example 121, 2-(6-Chloro-2-oxo-2,3-dihydro-indol-1-yl)-3-cyclopentyl-N-pyrazin-2-yl-propionamide]",0.38

# Same assay, conditions: @ 30 uM; 5 mM D-glucose, 30° C.
row,Compound,fold induction at 30 µM
1,"Cc1ccc2c(c1)C(=O)C(=O)N2C(CC(C)C)C(=O)Nc1nccs1 (stereo not drawn) [Example 87, 4-Methyl-2-(5-methyl-2,3-dioxo-2,3-dihydro-indol-1-yl)-pentanoic acid thiazol-2-ylamide]",1.16
2,"COc1ccc2c(c1)C(=O)C(=O)N2C(CC(C)C)C(=O)Nc1ccccn1 (stereo not drawn) [Example 54, 2-(5-Methoxy-2,3-dioxo-2,3-dihydro-indol-1-yl)-4-methyl-pentanoic acid pyridin-2-ylamide]",1.49
3,"CC(C)CC(C(=O)Nc1ccn(C)n1)N1C(=O)C(=O)c2c(Cl)cccc21 (stereo not drawn) [Example 19, 2-(4-Chloro-2,3-dioxo-2,3-dihydro-indol-1-yl)-4-methyl-pentanoic acid (1-methyl-1H-pyrazol-3-yl)-amide]",1.24
